Assay results as given in patent US5795899A, “Soluble salts of 4-amino-2-(4,4-dimethylimidazolidin-2-on-1-yl) pyrimidine-5-carboxylic acid N-methyl-N-(3-trifluoromethylphenyl)-amide, a process for the preparation thereof, the use thereof as pharmaceuticals and starting materials” (Hoechst Aktiengesellschaft, priority 1992, dated 1998).

Experiments:
physchem = details: water
HMG-CoA reductase = biological target: T1, HMG-CoA reductase (Rattus norvegicus, UniProt P51639); experiment: HMG-CoA reductase determination in vitro on partially purified HMG-CoA reductase from rat liver; type: biochemical; details: 10^-5 M; variation 10%
T1 construct: partially purified HMG-COA reductase from rat liver; from tissue; host or cells: rat liver (partially purified enzyme)
T1 sequence (P51639 1-887): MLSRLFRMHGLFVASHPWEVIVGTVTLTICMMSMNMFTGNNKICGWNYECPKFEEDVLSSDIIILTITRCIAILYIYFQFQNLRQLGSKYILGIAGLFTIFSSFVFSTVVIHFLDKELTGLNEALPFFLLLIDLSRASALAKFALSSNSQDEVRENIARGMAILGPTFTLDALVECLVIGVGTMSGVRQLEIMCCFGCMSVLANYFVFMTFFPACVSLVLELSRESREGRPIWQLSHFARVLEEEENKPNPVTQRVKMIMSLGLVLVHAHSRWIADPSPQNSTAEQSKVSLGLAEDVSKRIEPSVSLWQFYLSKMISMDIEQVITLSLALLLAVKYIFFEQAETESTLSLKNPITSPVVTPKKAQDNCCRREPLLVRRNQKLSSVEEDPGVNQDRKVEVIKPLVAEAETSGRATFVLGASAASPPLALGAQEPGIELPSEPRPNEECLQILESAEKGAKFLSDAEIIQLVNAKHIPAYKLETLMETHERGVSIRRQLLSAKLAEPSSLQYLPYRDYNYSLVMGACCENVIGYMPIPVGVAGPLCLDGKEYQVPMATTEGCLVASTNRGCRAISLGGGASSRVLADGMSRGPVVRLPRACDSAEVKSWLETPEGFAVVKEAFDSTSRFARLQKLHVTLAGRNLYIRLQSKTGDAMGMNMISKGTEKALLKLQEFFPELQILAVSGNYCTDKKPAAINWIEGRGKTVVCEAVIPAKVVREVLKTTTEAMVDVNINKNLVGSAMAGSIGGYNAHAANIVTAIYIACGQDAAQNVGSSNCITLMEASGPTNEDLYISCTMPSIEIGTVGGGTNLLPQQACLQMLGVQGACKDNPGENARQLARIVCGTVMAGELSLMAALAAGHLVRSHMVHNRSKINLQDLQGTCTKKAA

[1] = test system: colon carcinoma cells, HT 29; experiment: MTT assay, inhibition of cell proliferation, HT 29; type: cell-based; details: Homo sapiens, 72 hours incubation
Experimental: The reduced inhibitory effect on cell proliferation was tested on exponentially growing animal (mouse leukemia cells, L 1210) and human (bronchial carcinoma cells, A 549; colon carcinoma cells, HT 29) tumor cells. This entailed the tumor cells being incubated in RPMI standard medium with various concentrations of the test substances for 72 hours. Cell incubations only in fresh medium served as control. Incubations were set up in quadruplet. […] After incubation for a further 7 to 24 hours, the cell supernatant was carefully removed and the formazan dye in the cells was solubilized by adding DMSO and measured quantitatively by photometry at 492 nm. The ratio of the extinction of the substance incubations to the control incubation was quantified. The coefficient of variation in each incubation series was less than 15%. The following Table 6 indicates the IC50 values (IC50 [μg/ml] is the concentration of the test substance per ml which is necessary for 50% inhibition) from these investigations.

With `CN(C(=O)c1cnc(N2CC(C)(C)NC2=O)nc1N)c1cccc(C(F)(F)F)c1.Cl` [Compound I as hydrochloride, 4-amino-2-(4,4-dimethyl-2-oxo-1-imidazolidinyl)pyrimidine-5-carboxylic acid N-methyl-N-(3-trifluoromethylphenyl)amide hydrochloride] the solubility (physchem) was 430 mg/mL, the “Influence on HMG-CoA reductase enzyme activity compared with control incubations” value (HMG-CoA reductase) was “does not influence” and the IC50 [1] was over 100 µg/mL.
